Results published in patent publication US20240208912A1 (Mirati Therapeutics, Inc., priority 2021, published 2024).
Counter-ions that a name gives are not always drawn. Like-named read-outs stand apart in the source and are kept apart here.

Tests used:
[1] = target: T1, PRMT5/MEP50 complex (Homo sapiens, UniProt O14744); assay: PRMT5:MEP50 HotSpot Assay (full-length histone H2A substrate, plus and minus MTA); type: biochemical; conditions: IC50 + 2 μM MTA, in the presence of 2 μM MTA
T1 construct: purchased Reaction Biology Corporation
Method in brief: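 Radiometric HotSpot format using recombinant full-length histone H2A as substrate, run with and without MTA. Reactions were stopped and spotted onto filter paper. Tritiated H2A was quantified by scintillation counting.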

[2] = tested on: HCT116 homozygous MTAP knockout cells; assay: Proliferation assay (CellTiter-Glo, 10 days) in HCT116 homozygous MTAP knockout cells; type: cell-based; conditions: CellTiter-Glo after 10 days of treatment, read-out: Proliferation IC50 (nM) HCT116 MTAP_KO
Description: HCT116 cells were genetically engineered to knock out the function of both MTAP alleles using a CRISPR/Cas9 system and an sgRNA targeting the MTAP gene. Following Cas9/MTAP sgRNA transduction, clones were screened to confirm that each allele of the MTAP gene had been inactivated (i.e., homozygous MTAP knock out) creating an MTAP-deficient cell.
Control samples were analyzed in parallel.
Briefly, on Day 0, 250 HCT116 parental or HCT116 homozygous MTAP knockout cell were seeded in 96 well plates in McCoy's 5A supplemented with […] fetal bovine serum and pen/strep and the cells were incubated overnight at 37° C. plus 5% CO2.
The following day, cells were treated with DMSO vehicle control or a dose response of PRMT5 inhibitors and incubated at 37 C plus 5% CO2 for five days. On Day 6, the cells were trypsinized and split 1:10 into new 96-well plates with fresh medium containing the same concentration of PRMT5 inhibitor and incubated for an additional 5 days at 37° C. plus 5% CO^2.
On Day 11, the viability of the cells was measured using a CTG assay kit (CellTiter-Glo; Promega cat.no G7573) in accordance with the manufacturer's instructions. The IC50 values for each compound after 10 days of treatment were calculated using GraphPad PRISM software.

T1 sequence (O14744 2-637 limits assumed): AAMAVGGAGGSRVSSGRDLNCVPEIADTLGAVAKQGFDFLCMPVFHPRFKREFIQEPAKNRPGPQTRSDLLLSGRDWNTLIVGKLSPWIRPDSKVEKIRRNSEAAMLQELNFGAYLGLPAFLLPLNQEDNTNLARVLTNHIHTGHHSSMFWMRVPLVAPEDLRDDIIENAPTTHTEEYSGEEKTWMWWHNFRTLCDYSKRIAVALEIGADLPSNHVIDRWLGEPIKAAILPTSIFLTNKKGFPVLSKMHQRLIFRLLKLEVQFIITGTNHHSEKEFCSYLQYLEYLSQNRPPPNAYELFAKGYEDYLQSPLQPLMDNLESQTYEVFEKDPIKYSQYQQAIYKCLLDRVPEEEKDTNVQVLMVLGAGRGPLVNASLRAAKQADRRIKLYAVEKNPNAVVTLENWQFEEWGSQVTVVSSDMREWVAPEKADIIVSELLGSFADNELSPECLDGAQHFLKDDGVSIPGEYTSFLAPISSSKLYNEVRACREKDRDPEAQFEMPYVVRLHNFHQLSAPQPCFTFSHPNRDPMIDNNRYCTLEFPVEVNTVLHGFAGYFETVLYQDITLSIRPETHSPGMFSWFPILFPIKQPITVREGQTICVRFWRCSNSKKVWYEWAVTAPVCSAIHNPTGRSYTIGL
T1 sequence (Q9BQA1 2-342 partner limits assumed): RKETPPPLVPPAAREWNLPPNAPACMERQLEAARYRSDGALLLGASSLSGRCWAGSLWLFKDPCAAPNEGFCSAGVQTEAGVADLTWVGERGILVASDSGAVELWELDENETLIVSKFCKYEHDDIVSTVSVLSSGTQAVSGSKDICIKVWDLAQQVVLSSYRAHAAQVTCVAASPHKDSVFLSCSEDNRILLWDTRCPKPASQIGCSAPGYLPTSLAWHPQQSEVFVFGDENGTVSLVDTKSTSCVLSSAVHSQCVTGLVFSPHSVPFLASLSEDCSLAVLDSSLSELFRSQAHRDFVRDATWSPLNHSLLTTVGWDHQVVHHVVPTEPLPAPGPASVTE

IC50 [1] [nM] | IC50 [2] [nM] | IC50 ([2]; Homo sapiens, HCT-116, 240 h) [nM] | SMILES
909 | 1070 | – | CCOc1cc(-c2cnn(C)c2-c2c(F)ccc(OC3CC3)c2C#N)cc2c(CN)n[nH]c(=O)c12 (atropisomer, axis not shown; (P)) [Example 16-73, (P)-2-[4-[4-(aminomethyl)-8-ethoxy-1-oxo-2H-phthalazin-6-yl]-2-methyl-pyrazol-3-yl]-6-(cyclopropoxy)-3-fluoro-benzonitrile]
2230 | 321 | – | Cn1ncc(-c2cc(Cl)c3c(=O)[nH]nc(CN)c3c2)c1-c1c(F)c(Cl)cc(OC2CC2)c1C#N (single isomer, unassigned) [Example 16-27, (P)-2-[4-[4-(aminomethyl)-8-chloro-1-oxo-2H-phthalazin-6-yl]-2-methyl-pyrazol-3-yl]-4-chloro-6-(cyclopropoxy)-3-fluoro-benzonitrile]
204 | 187 | – | C[C@@H]1C[C@H]1Oc1ccc(F)c(-c2c(-c3ccc4c(=O)[nH]nc(CN)c4c3)cnn2C)c1C#N (atropisomer, axis not shown; (P)) [Example 16-65, (P)-2-(4-(4-(aminomethyl)-1-oxo-1,2-dihydrophthalazin-6-yl)-1-methyl-1H-pyrazol-5-yl)-3-fluoro-6-((1R,2R)-2-methylcyclopropoxy)benzonitrile]
> 10000 | – | 10000 | Cn1ncc(-c2ccc3c(=O)[nH]nc(C4(N)CCC4)c3c2)c1-c1sc2ccccc2c1C#N [Example 9-10, 2-(4-(4-(1-aminocyclobutyl)-1-oxo-1,2-dihydrophthalazin-6-yl)-1-methyl-1H-pyrazol-5-yl) benzo[b]thiophene-3-carbonitrile]
212 | – | 136 | Cc1cnc2sc(-c3c(-c4ccc5c(=O)[nH]nc(CN)c5c4)cnn3C)c(C#N)c2c1 [Example 12-19, 2-[4-[4-(aminomethyl)-1-oxo-2H-phthalazin-6-yl]-2-methyl-pyrazol-3-yl]-5-methyl-thieno[2,3-b]pyridine-3-carbonitrile hydrochloride]
111 | 292 | – | Cn1ncc(-c2ccc3c(=O)[nH]nc(CN)c3c2)c1-c1c(F)ccc(CC2CC2)c1C#N (single isomer, unassigned) [Example 16-29, (P)-2-(4-(4-(aminomethyl)-1-oxo-1,2-dihydrophthalazin-6-yl)-1-methyl-1H-pyrazol-5-yl)-6-(cyclopropylmethyl)-3-fluorobenzonitrile]
102 | 216 | – | Cn1ncc(-c2ccc3c(=O)[nH]nc(CN)c3c2)c1-c1c(F)cc2c(c1C#N)OCCC2 (atropisomer, axis not shown; (P)) [Example 16-37, (P)-7-[4-[4-(aminomethyl)-1-oxo-2H-phthalazin-6-yl]-2-methyl-pyrazol-3-yl]-6-fluoro-chromane-8-carbonitrile]
4100 | 264 | – | CCOc1cc(-c2cnn(C)c2-c2c(F)c(Cl)cc(OC3CC3)c2C#N)cc2c(CN)n[nH]c(=O)c12 (single isomer, unassigned) [Example 16-77, (P)-2-[4-[4-(aminomethyl)-8-ethoxy-1-oxo-2H-phthalazin-6-yl]-2-methyl-pyrazol-3-yl]-4-chloro-6-(cyclopropoxy)-3-fluoro-benzonitrile]
28.7 | 7 | – | Cn1ncc(-c2cc(Cl)c3c(=O)[nH]nc(CN)c3c2)c1-c1c(F)cc2ncc(Cl)cc2c1C#N (single isomer, unassigned) [Example 16-62, (M)-6-[4-[4-(aminomethyl)-8-chloro-1-oxo-2H-phthalazin-6-yl]-2-methyl-pyrazol-3-yl]-3-chloro-7-fluoro-quinoline-5-carbonitrile]
5030 | 420 | – | CCOc1cc(-c2cnn(C)c2-c2c(F)c(C)cc(OC3CC3)c2C#N)cc2c(CN)n[nH]c(=O)c12 (single isomer, unassigned) [Example 16-75, (P)-2-[4-[4-(aminomethyl)-8-ethoxy-1-oxo-2H-phthalazin-6-yl]-2-methyl-pyrazol-3-yl]-6-(cyclopropoxy)-3-fluoro-4-methyl-benzonitrile]
